In one series the target is T1, IκB kinase (Homo sapiens, UniProt O14920+O15111).
T1 construct: endogenous in cells; host or cells: HeLa S3 cell extract S100 (ammonium sulfate cut, Superose-6 fractions at 670 kDa)
Briefly: IκB kinase ELISA. In kind it is biochemical. The note with it: kinase complex from HeLa S3 cell extract S100, activated with MEKK1Δ. As for the experimental part:
The activity of the IκB kinase was determined using an ELISA comprising a biotinilated substrate peptide containing the amino acid sequence in the protein IκB of serines 32 to 36 and a specific poly- or monoclonal antibody (for example from New England Biolabs, Beverly, Mass., USA, cat.: 9240), which binds only to the phosphorylated form of the peptide IκB. This complex was immobilized on an antibody-binding plate (coated with protein A) and detected using a conjugate of a biotin-binding protein and HRP (for example streptavidine HRP). The activity could be quantified using a standard curve with substrate phosphopeptide.
To obtain the kinase complex, 10 ml of HeLa S3 cell extract S100 were diluted with 40 ml 50 mM HEPES, pH 7.5, adjusted to 40% ammonium sulfate and incubated on ice for 30 minutes. The precipitated pellet was dissolved in 5 ml SEC buffer (50 mM HEPES, pH 7.5, 1 mM DTT, 0.5 mM EDTA, 10 mM 2-glycerophosphate), centrifuged at 20,000×g for 15 minutes and filtered through a 0.22 μm filter. The sample was applied to a 320 ml Superose-6 FPLC column (Amersham Pharmacia Biotech AB, Uppsala, Sweden) which had been equilibrated with SEC buffer and was operated at a flow rate of 2 ml/min at 4° C. The fractions which corresponded to the elution time of the 670 kDa molecular weight standard were combined for activation. Activation was achieved by a 45-minute-incubation with 100 nM MEKK1Δ, 250 μM MgATP, 10 mM MgCl2, 5 mM dithiothreitol (DTT), 10 mM 2-glycerophosphate, 2.5 μM microcystin LR at 37° C. The activated enzyme was stored at −80° C.
The test substances, dissolved in DMSO (2 μl), were preincubated at 25° C. with 43 μl of activated enzyme (diluted 1:25 in reaction buffer 50 mM HEPES, pH 7.5, 10 mM MgCl2, 5 mM DTT, 10 mM β-glycerophosphate, 2.5 μM microcystin LR) for 30 minutes. 5 μl of substrate peptide (biotin-(CH2)6-DRHDSGLDSMKD-CONH2) (200 μM) were added, the mixture was incubated for one hour and the reaction was quenched using 150 μl of 50 mM HEPES, pH 7.5, 0.1% BSA, 50 mM EDTA, antibody [1:200]. 100 μl of the quenched reaction mixture or a standard phosphopeptide dilution series (biotin-(CH2)6-DRHDS[PO3]GLDSMKD-CONH2) were then transferred to a protein A plate (Pierce Chemical Co., Rockford, Ill., USA) and incubated with shaking for 2 hours.
After 3 washing steps with PBS, 100 μl of 0.5 μg/ml of streptavidin HRP (horseradish peroxidase) (diluted in 50mM HEPES/0.1% BSA) were added for 30 minutes. After 5 washing steps with PBS, 100 μl of TMB substrate (Kirkegaard & Perry Laboratories, Gaithersburg, Md., USA) were added and the development of color was stopped by addition of 100 μl of 0.18 M sulfuric acid. Absorption was measured at 450 nm. The standard curve was generated by […] according to a 4-parameter dose-activity relation. Using this standard curve, the enzyme activity or their inhibition by test substances was quantified.
Each substance was tested in duplicate. The mean of the blank (without enzyme) was subtracted from the means (enzyme with and without substances), and the inhibition in % was calculated. IC50 calculations were carried out using the software package GraFit 3.0.

A further series deals with T2, casein kinase II (CK II) (Homo sapiens, UniProt P68400).
T2 construct: purchased Upstate Biotechnologie
T2 sequence (P68400 whole entry): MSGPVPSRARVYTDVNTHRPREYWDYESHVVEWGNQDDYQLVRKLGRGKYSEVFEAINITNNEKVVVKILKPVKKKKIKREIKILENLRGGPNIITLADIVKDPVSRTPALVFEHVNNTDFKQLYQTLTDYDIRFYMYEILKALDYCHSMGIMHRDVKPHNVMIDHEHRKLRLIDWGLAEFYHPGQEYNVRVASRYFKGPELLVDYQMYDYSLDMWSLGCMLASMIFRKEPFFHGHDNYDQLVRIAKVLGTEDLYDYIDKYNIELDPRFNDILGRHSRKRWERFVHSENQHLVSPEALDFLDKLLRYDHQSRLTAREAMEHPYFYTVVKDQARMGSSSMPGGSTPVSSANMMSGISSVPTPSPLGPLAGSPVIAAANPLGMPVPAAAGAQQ
The series can be described thus: CK II kinase inhibition (Upstate test kit). The note with it: substance concentration 100 μM; ATP 50 μM. In kind it is biochemical. The procedure:
(§1) cAMP-dependent protein kinase (PKA), protein kinase C (PKC) and casein kinase II (CK II) were determined using the corresponding test kits of Upstate Biotechnologie according to the instructions of the manufacturer at an ATP concentration of 50 μM. However, instead of phosphocellulose filters, multi-screen plates (Millipore; Phosphocellulose MS-PH, cat. MAPHNOB10) with the corresponding aspiration system were used. The plates were then measured in a Wallac MicroBeta scintillation counter. In each case, 100 μM of test substance were used. Each substance was tested in duplicate. The mean of the blank (without enzyme) was subtracted from the means (enzyme with and without substances), and the inhibition in % was calculated. IC50 calculations were carried out using the software package GraFit 3.0.

In a further series the test system is protein kinase C (PKC). The series can be described thus: PKC kinase inhibition (Upstate test kit). The series is classed as biochemical. The note with it: substance concentration 100 μM; ATP 50 μM. The procedure:
as §1

Series [1] addresses T3, cAMP-dependent protein kinase (PKA) (Homo sapiens, UniProt P17612).
T3 construct: purchased Upstate Biotechnologie
The series can be described thus: PKA kinase inhibition (Upstate test kit). The note with it: substance concentration 100 μM; ATP 50 μM. In kind it is biochemical. As for the experimental part:
as §1

T1 sequence (O14920 whole entry): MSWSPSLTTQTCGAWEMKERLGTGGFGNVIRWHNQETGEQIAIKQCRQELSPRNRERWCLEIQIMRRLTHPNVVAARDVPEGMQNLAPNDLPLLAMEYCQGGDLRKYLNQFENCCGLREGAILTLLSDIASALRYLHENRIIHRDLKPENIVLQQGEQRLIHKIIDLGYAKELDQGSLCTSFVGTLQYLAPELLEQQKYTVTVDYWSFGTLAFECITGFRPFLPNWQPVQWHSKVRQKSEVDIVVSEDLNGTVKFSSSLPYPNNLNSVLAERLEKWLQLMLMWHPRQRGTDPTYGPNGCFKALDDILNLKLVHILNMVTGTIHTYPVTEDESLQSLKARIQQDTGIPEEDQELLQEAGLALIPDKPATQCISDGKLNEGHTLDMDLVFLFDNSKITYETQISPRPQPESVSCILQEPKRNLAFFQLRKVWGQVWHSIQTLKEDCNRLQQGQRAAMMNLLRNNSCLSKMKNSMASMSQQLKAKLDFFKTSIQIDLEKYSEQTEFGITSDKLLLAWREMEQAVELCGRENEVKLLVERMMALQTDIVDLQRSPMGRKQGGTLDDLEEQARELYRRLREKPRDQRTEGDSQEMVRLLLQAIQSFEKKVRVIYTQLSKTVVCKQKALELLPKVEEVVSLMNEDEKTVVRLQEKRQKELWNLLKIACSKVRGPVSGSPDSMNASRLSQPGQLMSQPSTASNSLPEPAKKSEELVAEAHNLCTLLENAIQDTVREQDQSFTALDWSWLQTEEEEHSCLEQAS
T1 sequence (O15111 whole entry): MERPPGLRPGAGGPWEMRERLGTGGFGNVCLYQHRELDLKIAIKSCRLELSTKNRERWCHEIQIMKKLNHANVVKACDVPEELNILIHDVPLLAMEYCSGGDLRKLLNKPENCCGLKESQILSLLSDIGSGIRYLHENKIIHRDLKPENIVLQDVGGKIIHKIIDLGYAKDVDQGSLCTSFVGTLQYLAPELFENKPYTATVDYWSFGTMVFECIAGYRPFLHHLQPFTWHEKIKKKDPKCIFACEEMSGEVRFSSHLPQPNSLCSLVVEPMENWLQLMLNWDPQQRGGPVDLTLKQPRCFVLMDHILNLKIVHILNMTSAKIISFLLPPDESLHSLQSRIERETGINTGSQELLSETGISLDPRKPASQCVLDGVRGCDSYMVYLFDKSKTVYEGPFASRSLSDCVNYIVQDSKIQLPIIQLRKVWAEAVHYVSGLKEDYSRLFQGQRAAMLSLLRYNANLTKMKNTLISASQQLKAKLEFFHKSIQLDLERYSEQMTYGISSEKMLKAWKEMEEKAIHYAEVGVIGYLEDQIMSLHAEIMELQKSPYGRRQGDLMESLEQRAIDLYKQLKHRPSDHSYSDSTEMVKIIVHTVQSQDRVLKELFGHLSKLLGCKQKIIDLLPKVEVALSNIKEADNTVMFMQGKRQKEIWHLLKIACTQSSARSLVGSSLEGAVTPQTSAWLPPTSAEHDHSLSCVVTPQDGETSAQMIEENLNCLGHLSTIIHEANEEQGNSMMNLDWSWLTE
T1 sequence (Q9Y6K9 whole entry partner): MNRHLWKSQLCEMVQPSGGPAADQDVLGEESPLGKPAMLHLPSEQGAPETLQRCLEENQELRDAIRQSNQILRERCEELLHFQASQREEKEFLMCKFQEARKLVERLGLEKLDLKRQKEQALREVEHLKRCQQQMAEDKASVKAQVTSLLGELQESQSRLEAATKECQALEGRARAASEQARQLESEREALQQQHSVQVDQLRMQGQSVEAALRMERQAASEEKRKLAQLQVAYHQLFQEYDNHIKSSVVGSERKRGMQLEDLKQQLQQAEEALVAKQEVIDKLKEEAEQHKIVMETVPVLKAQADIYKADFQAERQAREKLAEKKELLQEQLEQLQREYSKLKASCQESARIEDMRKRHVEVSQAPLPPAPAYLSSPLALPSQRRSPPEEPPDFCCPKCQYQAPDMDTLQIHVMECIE

On IκB kinase, `Cc1c(-c2ccncc2)[nH]c2ccc(C(=O)N[C@@H](CSc3ccccc3)C(N)=O)cc12` [Example 6] displayed an IC50 of 4900 nM. Also, the inhibition at 100 µM against casein kinase II (CK II) came to 39%; in series [1] it was 60%. In the series with protein kinase C (PKC), this molecule gave a PKC % inhibition of 58%.

For `NC(=O)[C@H](CSc1ccccc1)NC(=O)c1ccc2[nH]c(-c3ccncc3)cc2c1` (stereo in doubt) [Example 3, N-(1-carbamoyl-2-phenylsulfanylethyl)-2-pyridin-4-yl-1H-indole-5-carboxamide], on IκB kinase, the IC50 came to 550 nM. The inhibition at 100 µM against casein kinase II (CK II) came out at 37%; in series [1] it was 35%. Besides, the PKC % inhibition with protein kinase C (PKC) came out at 39%.

With `O=C(N[C@@H](CSc1ccccc1)C(=O)O)c1ccc2[nH]c(-c3ccncc3)cc2c1` [Example 4], half-maximal inhibition against IκB kinase (IC50) was put at 500 nM. Besides, the inhibition at 100 µM is 47% on casein kinase II (CK II) and 42% in series [1]. The molecule also displayed a PKC % inhibition in the series with protein kinase C (PKC) of 33%.

At IκB kinase, `Cc1c(-c2ccncc2)[nH]c2ccc(C(=O)N[C@@H](CSc3ccccc3)C(=O)O)cc12` [Example 5] yielded a half-inhibitory concentration (IC50) of 1800 nM. The results for the inhibition at 100 µM (against casein kinase II (CK II); in series [1]) were 27% and 55%, respectively. Also, in the series with protein kinase C (PKC), the PKC % inhibition was determined as 8%.

Molecule `NC(=O)[C@H](CCc1ccccc1)NC(=O)c1ccc2[nH]c(-c3ccccc3)c(-c3ccccc3)c2c1` [Example 1, N-(1-Carbamoyl-3-phenylpropyl)-2,3-diphenyl-1H-indole-5-carboxamide] yielded a melting point of 120 to 125 °C. Besides, it took 32000 nM to reach half-maximal inhibition against IκB kinase (IC50).

On IκB kinase, `CCN(C[C@H](NC(=O)c1ccc2[nH]c(-c3ccncc3)cc2c1)C(N)=O)c1ccccc1` [Example 9] came in with an IC50 of 1000 nM. In addition, the inhibition at 100 µM (against casein kinase II (CK II); in series [1]) was 0% in each case. In the series on protein kinase C (PKC), this molecule came in with a PKC % inhibition of 23%.

Regarding `NC(=O)[C@H](CCc1ccccc1)NC(=O)c1ccc2[nH]c(-c3ccncc3)cc2c1` [Example 2], it took 610 nM to reach half-maximal inhibition at IκB kinase (IC50). Also, the results for the inhibition at 100 µM (on casein kinase II (CK II); in series [1]) were 35% and 24%, respectively. In the series on protein kinase C (PKC), the PKC % inhibition was 15%.

`Cc1c(-c2ccncc2)[nH]c2ccc(C(=O)N[C@@H](CCn3cccc3)C(N)=O)cc12` [Example 7, N-(1-Carbamoyl-3-pyrrol-1-ylpropyl)-3-methyl-2-pyridin-4-yl-1H-indole-5-carboxamide] registered an IC50 on IκB kinase of 3000 nM. On casein kinase II (CK II), this molecule returned an inhibition at 100 µM of 18%.

The record behind these values is patent US7342029B2, “Substituted indoles” (Sanofi-Aventis Deutschland GmbH, priority 1999, dated 2008).
